Experimental data from patent US11530237B2, “Compositions and methods for treating CNS disorders” (Sage Therapeutics, Inc., priority 2014, dated 2022).

What was measured:
[1] = target: [35S]-TBPS binding, rat brain cortical membranes; experiment: Steroid inhibition of TBPS binding ([35S]-TBPS radioligand displacement); details: 3 nM [35S]-TBPS, 5 μM GABA
Experimental: TBPS binding assays using rat brain cortical membranes in the presence of 5 μM GABA has been described (Gee et al, J. Pharmacol. Exp. Then 1987, 241, 346-353; Hawkinson et al, Mol. Pharmacol. 1994, 46, 977-985; Lewin, A. H et al., Mol. Pharmacol. 1989, 35, 189-194).
Briefly, cortices are rapidly removed following decapitation of carbon dioxide-anesthetized Sprague-Dawley rats (200-250 g). The cortices are homogenized in 10 volumes of […] using a glass/teflon homogenizer and centrifuged at 1500×g for 10 min at 4° C. The resultant supernatants are centrifuged at 10,000×g for 20 min at 4° C. to obtain the P2 pellets. The P2 pellets are resuspended in 200 mM NaCl/50 mM Na—K phosphate pH 7.4 buffer and centrifuged at 10,000×g for 10 min at 4° C. This washing procedure is repeated twice and the pellets are resuspended in 10 volumes of buffer. Aliquots (100 μL) of the membrane suspensions are incubated with 3 nM [^35S]-TBPS and 5 μL aliquots of test drug dissolved in dimethyl sulfoxide (DMSO) (final 0.5%) in the presence of 5 μM GABA. The incubation is brought to a final volume of 1.0 mL with buffer. […] Following a 90 min incubation at room temp, the assays are terminated by filtration through glass fiber filters (Schleicher and Schuell No. 32) using a cell harvester (Braudel) and rinsed three times with ice-cold buffer. Filter bound radioactivity is measured by liquid scintillation spectrometry. Non-linear curve fitting of the overall data for each drug averaged for each concentration is done using Prism (GraphPad).
Various compounds are or can be screened to determine their potential as modulators of [^35S]-TBPS binding in vitro. These assays are or can be performed in accordance with the above discussed procedures.

α1β2γ2 GABAA receptors = α1β2γ2 GABAA receptors (Homo sapiens (Human), UniProt P14867+P47870); experiment: Patch clamp electrophysiology (QPatch) of recombinant α1β2γ2 GABAA receptors in LTK cells; format: cell-based; details: 10 μM test article, GABA EC20 = 2 μM, read-out: GABA (α1β2γ2) Qpatch in Ltk, % efficacy at 10 μM
Experimental: Cellular electrophysiology is used to measure the pharmacological properties of our GABAA receptor modulators in heterologous cell systems. Each compound is tested for its ability to affect GABA mediated currents at a suhmaximal agonist dose (GABA EC20=2 μM). LTK cells are stably transfected with the α1β2γ2 subunits of the GABA receptor and CHO cells are transiently transfected with the α4β3δ subunits via the Lipofecatamine method. Cells were passaged at a confluence of about 50-80% and then seeded onto 35 mm sterile culture dishes containing 2 ml culture complete medium without antibiotics or antimycotics. Confluent clusters of cells are electrically coupled (Pritchett et al., Science, 1988, 242, 1306-1308). Because responses in distant cells are not adequately voltage clamped and because of uncertainties about the extent of coupling (Verdoom et al., Neuron 1990, 4, 919-928), cells were cultivated at a density that enables the recording of single cells (without visible connections to other cells).
Whole cell currents were measured with HEKA EPC-10 amplifiers using PatchMaster software or by using the high throughput QPatch platform (Sophion). Bath solution for all experiments contained (in mM): NaCl 137 mM, KCl 4 mM, CaCl2 1.8 mM, MgCl2 1 mM, HEPES 10 mM, D-Glucose 10 mM, pH (NaOH) 7.4. In some cases 0.005% cremophor was also added. Intracellular (pipette) solution contained: KCl 130 mM, MgCl2 1 mM, Mg-ATP 5 mM, HEPES 10 mM, EGTA 5 mM, pH 7.2. During experiments, cells and solutions were maintained at room temperature (19° C.-30° C.). For manual patch clamp recordings, cell culture dishes were placed on the dish holder of the microscope and continuously perfused (1 ml/min) with bath solution. After formation of a Gigaohm seal between the patch electrodes and the cell (-ipette resistance range: 2.5 MΩ-6.0 MΩ; seal resistance range:>1 GΩ) the cell membrane across the pipette tip was ruptured to assure electrical access to the cell interior (whole-cell patch-configuration). For experiments using the QPatch system, cells were transferred as suspension to the QPatch system in the bath solution and automated whole cell recordings were performed.
Cells were voltage clamped at a holding potential of −80 mV. For the analysis of test articles, GABA receptors were stimulated by 2 μM GABA after sequential pre-incubation of increasing concentrations of the test article. Pre-incubation duration was 30 s and the duration of the GABA stimulus was 2s. Test articles were dissolved in DMSO to form stock solutions (10 mM). Test articles were diluted to 0.01, 0.1, 1, and 10 μM in bath solution. All concentrations of test articles were tested on each cell. The relative percentage potentiation was defined as the peak amplitude in response to GABA EC20 in the presence of the test article divided by the peak amplitude in response to GABA EC20 alone, multiplied by 100. For Table 2. GABAA receptors α1β2γ2 and α4β3δ% efficacy: “A” 10-100, “B”>100-500, “C”>500; D indicates the data is not available or has not been determined.

SMILES | IC50 [1] | Emax at 10 µM (α1β2γ2 GABAA receptors)
CC(C(=O)[C@H]1CC[C@H]2[C@@H]3CC[C@@H]4C[C@](C)(O)CC[C@]4(C)[C@H]3CC[C@]12C)n1nccn1 (stereo in doubt) [Compound 56, (R)-1-((3R,5R,8R,9S,10S,13S,14S,17S)-3-hydroxyl-3,10,13-trimethylhexadecahydro-1H-cyclopenta[a]phenanthren-17-yl)-2-(2H-1,2,3-triazol-2-yl)propan-1-one] | 50 to 100 nM | –
CO[C@H]1C[C@@]2(C)[C@@H](CC[C@@H]3[C@@H]2CC[C@]2(C)[C@@H](C(=O)CN4CCOCC4)CC[C@@H]32)C[C@@H]1O [Compound 1] | – | 100 to 500%
CO[C@H]1C[C@@]2(C)[C@@H](CC[C@@H]3[C@@H]2CC[C@]2(C)[C@@H](C(=O)Cn4ccnn4)CC[C@@H]32)C[C@@H]1O [Compound 3] | – | 100 to 500%
CO[C@H]1C[C@@]2(C)[C@@H](CC[C@@H]3[C@@H]2CC[C@]2(C)[C@@H](C(=O)Cn4nccn4)CC[C@@H]32)C[C@]1(C)O [Compound 42] | – | 100 to 500%
C[C@@]1(O)CC[C@@]2(C)[C@@H](CC[C@@H]3[C@@H]2CC[C@]2(C)[C@@H](C(=O)Cn4nc5ccc(Cl)c(F)c5n4)CC[C@@H]32)C1 [Compound 112] | – | 100 to 500%
COc1ccc2nn(CC(=O)[C@H]3CC[C@H]4[C@@H]5CC[C@H]6C[C@](C)(O)CC[C@]6(C)[C@H]5CC[C@]34C)nc2c1 [Compound 125] | – | 100 to 500%
COc1ccc2nnn(CC(=O)[C@H]3CC[C@H]4[C@@H]5CC[C@H]6C[C@](C)(O)CC[C@]6(C)[C@H]5CC[C@]34C)c2c1 [Compound 126] | – | 100 to 500%
COc1ccc2c(c1)nnn2CC(=O)[C@H]1CC[C@H]2[C@@H]3CC[C@H]4C[C@](C)(O)CC[C@]4(C)[C@H]3CC[C@]12C [Compound 127] | – | 100 to 500%
C[C@@]1(O)CC[C@@]2(C)[C@@H](CC[C@@H]3[C@@H]2CC[C@]2(C)[C@@H](C(=O)Cn4nc5cccc(F)c5n4)CC[C@@H]32)C1 [Compound 128] | – | 100 to 500%
C[C@@]1(O)CC[C@@]2(C)[C@@H](CC[C@@H]3[C@@H]2CC[C@]2(C)[C@@H](C(=O)Cn4ccnc4C#N)CC[C@@H]32)C1 [Compound 129] | – | 100 to 500%
Cc1cnn(CC(=O)[C@H]2CC[C@H]3[C@@H]4CC[C@H]5C[C@](C)(O)CC[C@]5(C)[C@H]4CC[C@]23C)c1 [Compound 130] | – | 100 to 500%
C[C@@]1(O)CC[C@@]2(C)[C@@H](CC[C@@H]3[C@@H]2CC[C@]2(C)[C@@H](C(=O)Cn4cc(C(F)(F)F)cn4)CC[C@@H]32)C1 [Compound 131] | – | 100 to 500%
Cc1cn(CC(=O)[C@H]2CC[C@H]3[C@@H]4CC[C@H]5C[C@](C)(O)CC[C@]5(C)[C@H]4CC[C@]23C)cn1 [Compound 135] | – | 100 to 500%
Cc1cncn1CC(=O)[C@H]1CC[C@H]2[C@@H]3CC[C@H]4C[C@](C)(O)CC[C@]4(C)[C@H]3CC[C@]12C [Compound 136] | – | 100 to 500%
C[C@@]1(O)CC[C@@]2(C)[C@@H](CC[C@@H]3[C@@H]2CC[C@]2(C)[C@@H](C(=O)Cn4cc(Cl)cn4)CC[C@@H]32)C1 [Compound 137] | – | 100 to 500%
COC[C@@]1(O)CC[C@@]2(C)[C@@H](CC[C@@H]3[C@@H]2CC[C@]2(C)[C@@H](C(=O)Cn4cc(C(F)(F)F)cn4)CC[C@@H]32)C1 [Compound 140] | – | 100 to 500%
COC[C@@]1(O)CC[C@@]2(C)[C@@H](CC[C@@H]3[C@@H]2CC[C@]2(C)[C@@H](C(=O)Cn4ccnc4)CC[C@@H]32)C1 [Compound 141] | – | > 500%
CCOc1cnn(CC(=O)[C@H]2CC[C@H]3[C@@H]4CC[C@@H]5C[C@](C)(O)CC[C@]5(C)[C@H]4CC[C@]23C)c1 [Compound 145] | – | > 500%

SMILES | IC50 [1] | Emax at 10 µM (α1β2γ2 GABAA receptors)
Cc1cnn(CC(=O)[C@H]2CC[C@H]3[C@@H]4CC[C@@H]5C[C@](C)(O)CC[C@]5(C)[C@H]4CC[C@]23C)c1 [Compound 147] | – | > 500%
COc1cnn(CC(=O)[C@H]2CC[C@H]3[C@@H]4CC[C@H]5C[C@](C)(O)CC[C@]5(C)[C@H]4CC[C@]23C)c1 [Compound 148] | – | 100 to 500%
C[C@@]1(O)CC[C@@]2(C)[C@@H](CC[C@@H]3[C@@H]2CC[C@]2(C)[C@@H](C(=O)Cn4cnc(C#N)c4)CC[C@@H]32)C1 [Compound 154] | – | 100 to 500%
COC[C@@]1(O)CC[C@@]2(C)[C@@H](CC[C@@H]3[C@@H]2CC[C@]2(C)[C@@H](C(=O)Cn4cc(OC)cn4)CC[C@@H]32)C1 [Compound 158] | – | 100 to 500%
CCOc1cnn(CC(=O)[C@H]2CC[C@H]3[C@@H]4CC[C@H]5C[C@@](O)(COC)CC[C@]5(C)[C@H]4CC[C@]23C)c1 [Compound 159] | – | > 500%
CNC(=O)c1cnn(CC(=O)[C@H]2CC[C@H]3[C@@H]4CC[C@H]5C[C@@](O)(COC)CC[C@]5(C)[C@H]4CC[C@]23C)c1 [Compound 161] | – | 10 to 100%
COC[C@@]1(O)CC[C@@]2(C)[C@@H](CC[C@@H]3[C@@H]2CC[C@]2(C)[C@@H](C(=O)Cn4nc5ccc(Cl)cc5n4)CC[C@@H]32)C1 [Compound 165] | – | 100 to 500%
COc1cnn(CC(=O)[C@H]2CC[C@H]3[C@@H]4CC[C@@H]5C[C@](C)(O)CC[C@]5(C)[C@H]4CC[C@]23C)c1 [Compound 166] | – | 100 to 500%
C[C@@]1(O)CC[C@@]2(C)[C@H](CC[C@@H]3[C@@H]2CC[C@]2(C)[C@@H](C(=O)Cn4cc(C(N)=O)cn4)CC[C@@H]32)C1 [Compound 167] | – | 100 to 500%
CNC(=O)c1cnn(CC(=O)[C@H]2CC[C@H]3[C@@H]4CC[C@@H]5C[C@](C)(O)CC[C@]5(C)[C@H]4CC[C@]23C)c1 [Compound 168] | – | 100 to 500%
CN(C)C(=O)c1cnn(CC(=O)[C@H]2CC[C@H]3[C@@H]4CC[C@@H]5C[C@](C)(O)CC[C@]5(C)[C@H]4CC[C@]23C)c1 [Compound 169] | – | 100 to 500%
CC(=O)Nc1cnn(CC(=O)[C@H]2CC[C@H]3[C@@H]4CC[C@@H]5C[C@](C)(O)CC[C@]5(C)[C@H]4CC[C@]23C)c1 [Compound 171] | – | 100 to 500%
Cc1cn(CC(=O)[C@H]2CC[C@H]3[C@@H]4CC[C@@H]5C[C@](C)(O)CC[C@]5(C)[C@H]4CC[C@]23C)cn1 [Compound 172] | – | 100 to 500%
CC(C)Oc1cnn(CC(=O)[C@H]2CC[C@H]3[C@@H]4CC[C@@H]5C[C@](C)(O)CC[C@]5(C)[C@H]4CC[C@]23C)c1 [Compound 173] | – | 100 to 500%
Cc1nccn1CC(=O)[C@H]1CC[C@H]2[C@@H]3CC[C@@H]4C[C@](C)(O)CC[C@]4(C)[C@H]3CC[C@]12C [Compound 174] | – | 100 to 500%
COC[C@@]1(O)CC[C@@]2(C)[C@@H](CC[C@@H]3[C@@H]2CC[C@]2(C)[C@@H](C(=O)Cn4cnc(C#N)c4)CC[C@@H]32)C1 [Compound 178] | – | > 500%
C[C@@]1(O)CC[C@@]2(C)[C@@H](CC[C@H]3[C@@H]4CC[C@H](C(=O)Cn5cc(C#N)cn5)[C@@]4(C)CC(=O)[C@@H]32)C1 [Compound 196] | – | 100 to 500%
